Assays:
Assay type in all cases: in vivo, rat
blood glucose = assay: Blood glucose after oral gavage in 24 h fasted rats (glucose oxidase kit); conditions: fasted 24 h, gavage of 0.736 M in 3 ml saline; for increase in blood glucose compared with saline and glucose groups: male rats, 0-150 min
Procedure: In the experiments performed and described herein, there were four groups of Spague Dawley type male rats, weighting approximately 300 g each, consisting of four (4) animals in each group. The animals were fed freely on standard rat chow and were then fasted for 24 hours. At the end of this period, said animals were lightly anaesthetized with nitrogen oxide and halothane, the body temperature being maintained with a heat lamp, and the femoral artery was cannulated, with a heparinized catheter and syringe, so that multiple blood samples could be obtained at serial time points. The test compounds were administered by gavaging the animals, said compounds having being dissolved in 3 ml of normal saline. The concentrations of the compounds administered to three groups of animals were: 0.736 M (550 mg in 3 ml of saline) of N-butyryl-D-glucosamine (designated as GlcNBu), or 0.736 M (398 mg in 3 ml of saline) of D-glucose (designated as Glc), or a combination of 0.736 M of GlcNBu and 0.736 M Glc dissolved together in 3 ml of saline. No compound was administered to the fourth group of animals (which consisted of a control group) and animals in this group were gavaged instead with 3 ml of normal saline.
Blood (0.4 ml) was collected at 10 min before the gavage (designated as −10 min in the accompanying FIG. 1), immedietly before the gavage (designated as 0 min) and at the following time points (timed in minutes after time 0) 5, 15, 30, 60, 90, 120 and 150, as shown in the accompanying figure. The glucose concentration in the blood was determined by a commercial glucose oxidase kit, designed for the determination of blood glucose in the blood of patients with diabetes. The determinations were done in triplicate for each time point and for each of the four animals in each of the four groups.
With reference to FIG. 1, each point of the graph represents the mean of the blood glucose concentrations obtained from the four rats in each group of animals. […]

[1] = Lean body mass and fat content by Dual Energy X-ray Absortiometry after 6 months daily oral feeding of control and ovariectomised rats; conditions: daily oral feeding 6 months (GlcNBu 200 mg/kg/day or equimolar Glc)
Procedure: In another experiment, there were four Groups of Sprague Dawley type female rats, with eight animals in each group, of approximately 250 g in weight. Two of the said groups underwent surgical ovariectomy and will be referred as the ovariectomised Groups (OVX). […] One C group and one OVX Group were fed GlcNBu, 200 mg/kg/day orally and one C group and one OVX Group were fed an equimolar amount of Glc daily. The daily feedings continued for all of the animals for a period of 6 months. At the end of the 6 month period the animals were euthanized, blood was obtained by cardiac puncture for glucose measurements, 24 hours after the administration of the Glc or GlcNBu, and their body fat and lean body mass was estimated, using a Hologic 4500 Dual Energy X-ray Absortiometry instrument, with small animal software.
It was previously known that ovariectomy increases the body weight and the fat content of animals undergoing this procedure. The results for the lean body mass and the fat content are shown in Table 1 and presented as the mean values±the standard deviations (SD) for each group of Animals.

[2] = Incorporation of radioactivity from radiolabelled GlcNBu into plasma glucose, glucosamine or N-acetylglucosamine (HPLC of acetonitrile-soluble plasma fraction); conditions: rats, oral or IP, plasma acetonitrile-soluble fractions up to 4 hour, amine column HPLC
Procedure: In order to test whether GlcNBu, in fact, was incorporated into serum glucose, or glucosamine, radiolabelled GlcNBu was prepared from [^3H] glucosamine and administered either orally or intra-peritoneally (IP) to rats, under identical conditions shown in FIG. 1. Plasma was sampled serially and plasma proteins were precipitated with acetonitrile and the radioactivity into the acetonitrile-soluble fraction containing GlcNBu metabolites was quantified. It can be seen that the radioactive profile from the oral administration of [^3H] GlcNBu is different than the glucose concentration profiles (FIG. 1). Acetonitrile-soluble fractions illustrated in FIG. 2, including the 4 hour time point were analyzed by HPLC, using an amine column and acetonitrile/water mixtures as the mobile phase (1 mL/min flow rate), Absorbance at 195 nm and radioactivity of 2 mL fractions were monitored. Radiolabelled and non-radiolabelled standards of GlcNBu, glucose, glucosamine, N-acetylglucosamine and various disaccharides were used as standards for the column. […] It is, therefore, unlikely that a significant proportion of orally fed GlcNBu is converted to glucose, glucosamine or N-acetylglucosamine, over the time course of the study. Also, glucose or glucosamine are not known to be converted into GlcNBu by animal tissues.

[3] = control (C, non-ovariectomised) female rats
[4] = ovariectomised (OVX) female rats

With `O=C[C@H](O)[C@@H](O)[C@H](O)[C@H](O)CO` [Glc, D-glucose, reference compound] the “blood glucose concentration rose from time 0 to” value (blood glucose; male Sprague Dawley rats, followed to 150 min, mean of 4 rats) was ~7 mmol/L, the “Fat content (g, mean ± SD)” value [1, 3] was 77.45 ± 21.0 g and the “Lean body mass (g, mean ± SD)” value [1, 3] was 283.93 ± 21.5 g. The “Fat content (g, mean ± SD)” value [1, 4] was 112.94 ± 30.9 g and the “Lean body mass (g, mean ± SD)” value [1, 4] was 296.87 ± 6.2 g.

For `CCCC(=O)N[C@H]1C(O)O[C@H](CO)[C@@H](O)[C@@H]1O` (stereo partly drawn) [[^3H] GlcNBu], the “incorporation of radioactivity into glucose, glucosamine or N-acetylglucosamine” value [2] was “no significant incorporation of radioactivity”.

For `CCCC(=O)N[C@H]1C(O)O[C@H](CO)[C@@H](O)[C@@H]1O` (stereo partly drawn) [GlcNBu, N-butyryl-D-glucosamine], the “increase in blood glucose compared with saline and glucose groups” value (blood glucose) was “higher than those gavaged with saline but lower than those rats gavaged with glucose”, the “increase in blood glucose compared with saline and glucose groups” value (blood glucose; listed as N-butyryl-D-glucosamine) was “lower blood glucose” and the “Fat content (g, mean ± SD)” value [1, 3] was 74.57 ± 23.2 g. The “Lean body mass (g, mean ± SD)” value [1, 3] was 264.02 ± 12.1 g, the “Fat content (g, mean ± SD)” value [1, 4] was 126.08 ± 38.4 g and the “Lean body mass (g, mean ± SD)” value [1, 4] was 307.52 ± 34.0 g.
